# Target: 11β-HSD1 (Homo sapiens (Human), UniProt P28845)
# Test: 11β-HSD1 inhibiting activity, HTRF assay with human microsomal fractions
# Format: biochemical
# Settings: 160 nM cortisone, 200 μM NADPH, 2 h at 37° C.
# Procedure: The inhibiting activity of 11β-HSD1 derived from microsomal fractions was measured using the HTRF assay (62CO2PEB, Cisbio). […] Europium (Eu^3+) cryptate and XL665-conjugated cortisol were then added to each well and incubated for an additional 2 h at room temperature. The Cortisol concentration was calculated u sing a calibration curve. The IC50 values were calculated from dose response curves using GraphPad Prism software.
# 11β-HSD1, sequence (P28845 whole entry): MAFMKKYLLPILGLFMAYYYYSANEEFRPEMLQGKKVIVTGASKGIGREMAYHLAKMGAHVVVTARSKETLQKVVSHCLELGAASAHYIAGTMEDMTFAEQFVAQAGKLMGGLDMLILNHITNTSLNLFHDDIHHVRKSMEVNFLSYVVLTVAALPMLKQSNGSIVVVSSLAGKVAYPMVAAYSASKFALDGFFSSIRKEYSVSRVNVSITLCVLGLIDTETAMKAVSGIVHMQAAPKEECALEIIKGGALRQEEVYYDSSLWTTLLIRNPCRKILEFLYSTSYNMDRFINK
row,Compound,IC50
1,"NC(=O)C12CC3CC(C1)C(NC(=O)C1(NS(=O)(=O)c4cccs4)CC1)C(C3)C2 (centres unmarked) [Example 48, E-4-[1-(thiophen-2-sulfonylamino)cyclopropanecarboxamido]-adamantan-1-carboxylic acid amide]",0.0628 µM
2,"O=C(NC1CC2CCC1C2)C1(NS(=O)(=O)c2cccc(Cl)c2)CC1 (centres unmarked) [Example 55, N-(bicyclo[2.2.1]heptan-2-yl)-1-(3-chloro-benzenesulfonylamino)cyclopropanecarboxamide]",0.0083 µM
3,NC(=O)C12CC3CC(C1)C(NC(=O)C1(NC(=O)c4ccc(C(F)(F)F)cn4)CC1)C(C3)C2 (centres unmarked) [Example 64],0.111 µM
4,"CC(C)(CNS(=O)(=O)c1ccccc1)C(=O)NC1C2CC3CC1CC(C(N)=O)(C3)C2 (centres unmarked) [Example 69, E-4-[3-(benzenesulfonylamino)-2,2-dimethylpropanamido]adamantan-1-carboxylic acid amide]",0.0286 µM
5,"Cc1c(Cl)cccc1S(=O)(=O)NCC(C)(C)C(=O)NC1C2CC3CC1CC(C(N)=O)(C3)C2 (centres unmarked) [Example 70, E-4-[3-(3-chloro-2-methyl-benzenesulfonylamino)-2,2-dimethylpropanamido]adamantan-1-carboxylic acid amide]",0.0062 µM
6,"CN(C(C)(C)C(=O)NC1C2CC3CC1CC(C(N)=O)(C3)C2)S(=O)(=O)c1ccccc1F (centres unmarked) [Example 72, E-4-[2-(2-fluoro-N-methyl-benzenesulfonylamino)-2-methylpropanamido]adamantan-1-carboxylic acid amide]",0.0012 µM
7,NC(=O)C12CC3CC(C1)C(NC(=O)c1cccc(NS(=O)(=O)c4ccccc4C(F)(F)F)c1)C(C3)C2 (centres unmarked) [Example 100],0.0153 µM
8,"NC(=O)C12CC3CC(C1)C(NC(=O)c1cccc(NS(=O)(=O)c4ccco4)c1)C(C3)C2 (centres unmarked) [Example 103, E-4-[3-(furan-2-sulfonylamino)-benzamido]-adamantan-1-carboxylic acid amide]",0.0238 µM
9,"NC(=O)C12CC3CC(C1)C(NC(=O)c1cccc(NS(=O)(=O)c4ccc(C(F)(F)F)c(Cl)c4)c1)C(C3)C2 (centres unmarked) [Example 114, E-4-[3-(3-chloro-4-(trifluoromethyl)benzenesulfonylamino)benzamido]adamantan-1-carboxylic acid amide]",0.0307 µM
10,"NC(=O)C12CC3CC(C1)C(NC(=O)c1cccc(NS(=O)(=O)c4ccc(Br)cc4Cl)c1)C(C3)C2 (centres unmarked) [Example 116, E-4-[3-(2-chloro-4-bromo-benzenesulfonylamino)-benzamido]-adamantan-1-carboxylic acid amide]",0.0145 µM
11,"NC(=O)C12CC3CC(C1)C(NC(=O)c1cccc(NS(=O)(=O)c4c(F)cccc4F)c1)C(C3)C2 (centres unmarked) [Example 123, E-4-[3-(2,6-difluoro-benzenesulfonylamino)-benzamido]-adamantan-1-carboxylic acid amide]",0.0128 µM
12,"NC(=O)C12CC3CC(C1)C(NC(=O)c1cccc(NS(=O)(=O)c4ccccc4C(F)(F)F)c1F)C(C3)C2 (centres unmarked) [Example 125, E-4-[2-fluoro-3-(2-(trifluoromethyl)benzenesulfonylamino)benzamido]adamantan-1-carboxylic acid amide]",0.0116 µM
13,"NC(=O)C12CC3CC(C1)C(NC(=O)c1cccc(NS(=O)(=O)c4cccc(Cl)c4)c1F)C(C3)C2 (centres unmarked) [Example 132, E-4-[2-fluoro-3-(3-chlorobenzenesulfonylamino)benzamido]adamantan-1-carboxylic acid amide]",0.148 µM
14,"NC(=O)C12CC3CC(C1)C(NC(=O)c1cccc(NS(=O)(=O)C4CC4)c1)C(C3)C2 (centres unmarked) [Example 138, E-4-(3-(cyclopropanesulfonamido)benzamido)adamantan-1-carboxylic acid amide]",0.0621 µM
15,NC(=O)C12CC3CC(C1)C(NC(=O)C1(CNC(=O)N4CCc5ccccc5C4)CC1)C(C3)C2 (centres unmarked) [Example 140],0.0978 µM
16,"NC(=O)C12CC3CC(C1)C(NC(=O)C1(CNC(=O)N4CCNc5ccccc54)CC1)C(C3)C2 (centres unmarked) [Example 146, E-3,4-dihydro-2H-quinoxalin-1-carboxylic acid[1-(5-carbamoyl-adamantan-2-ylcarbamoyl)-cyclopropylmethyl]-amide]",0.128 µM

# The remaining lines, values ahead:
row,IC50,Compound
1,0.495 µM,"NC(=O)C12CC3CC(C1)C(NC(=O)C1(NS(=O)(=O)c4ccc(F)c(F)c4F)CC1)C(C3)C2 (centres unmarked) [Example 47, E-4-[1-(2,3,4-trifluoro-benzenesulfonylamino)cyclopropanecarboxamido]-adamantan-1-carboxylic acid amide]"
2,0.148 µM,"NC(=O)C12CC3CC(C1)C(NC(=O)c1ccccc1NS(=O)(=O)c1ccccc1F)C(C3)C2 (centres unmarked) [Example 92, E-4-[2-(2-fluoro-benzenesulfonylamino)-benzamido]-adamantan-1-carboxylic acid amide]"
3,0.0757 µM,"NC(=O)C12CC3CC(C1)C(NC(=O)c1cccc(NS(=O)(=O)c4ccc(F)cc4)c1)C(C3)C2 (centres unmarked) [Example 94, E-4-[3-(4-fluoro-benzenesulfonylamino)-benzamido]-adamantan-1-carboxylic acid amide]"
4,0.0603 µM,Cc1nc(C)c(S(=O)(=O)Nc2cccc(C(=O)NC3C4CC5CC3CC(C(N)=O)(C5)C4)c2)s1 (centres unmarked) [Example 107]
5,0.0525 µM,"NC(=O)C12CC3CC(C1)C(NC(=O)C1(CNC(=O)N4CCCc5ccccc54)CC1)C(C3)C2 (centres unmarked) [Example 141, E-3,4-dihydro-2H-quinolin-1-carboxylic acid[1-(5-carbamoyl-adamantan-2-ylcarbamoyl)-cyclopropylmethyl]-amide]"
6,0.0512 µM,"Cc1n[nH]c(C)c1S(=O)(=O)Nc1cccc(C(=O)NC2C3CC4CC2CC(C(N)=O)(C4)C3)c1 (centres unmarked) [Example 108, E-4-[3-(3,5-dimethyl-1H-pyrazole-4-sulfonylamino)-benzamido]-adamantan-1-carboxylic acid amide]"
7,0.0427 µM,NC(=O)C12CC3CC(C1)C(NC(=O)c1cccc(NS(=O)(=O)c4ccccc4)c1)C(C3)C2 (centres unmarked) [Example 105]
8,0.0347 µM,"Cc1cc(S(=O)(=O)NC2(C(=O)NC3C4CC5CC3CC(C(N)=O)(C5)C4)CC2)c(F)cc1Cl (centres unmarked) [Example 46, E-4-[1-(2-fluoro-4-chloro-5-methyl-benzenesulfonylamino)cyclopropanecarboxamido]-adamantan-1-carboxylic acid amide]"
9,0.0325 µM,"NC(=O)C12CC3CC(C1)C(NC(=O)C1(NS(=O)(=O)c4cc(Cl)c(Cl)cc4F)CC1)C(C3)C2 (centres unmarked) [Example 45, E-4-[1-(2-fluoro-4,5-dichloro-benzenesulfonylamino)cyclopropanecarboxamido]-adamantan-1-carboxylic acid amide]"
10,0.0272 µM,"NC(=O)C12CC3CC(C1)C(NC(=O)c1cccc(NS(=O)(=O)c4cccc(F)c4)c1)C(C3)C2 (centres unmarked) [Example 120, E-4-[3-(3-fluoro-benzenesulfonylamino)-benzamido]-adamantan-1-carboxylic acid amide]"
11,0.0204 µM,"NC(=O)C12CC3CC(C1)C(NC(=O)c1cccc(NS(=O)(=O)c4cc(F)cc(Cl)c4)c1)C(C3)C2 (centres unmarked) [Example 118, E-4-[3-(3-chloro-5-fluoro-benzenesulfonylamino)-benzamido]-adamantan-1-carboxylic acid amide]"
12,0.0191 µM,NC(=O)C12CC3CC(C1)C(NC(=O)c1cccc(NS(=O)(=O)c4ccccc4C(F)(F)F)c1)C(C3)C2 (centres unmarked) [Example 115]
13,0.0173 µM,"Cn1nccc1S(=O)(=O)NC1(C(=O)NC2C3CC4CC2CC(C(N)=O)(C4)C3)CC1 (centres unmarked) [Example 58, E-4-[1-(1-methyl-1H-pyrazole-5-sulfonylamino)cyclopropanecarboxamido]-adamantan-1-carboxylic acid amide]"
14,0.0151 µM,"NC(=O)C12CC3CC(C1)C(NC(=O)c1cccc(NS(=O)(=O)c4cc(F)ccc4F)c1)C(C3)C2 (centres unmarked) [Example 122, E-4-[3-(2,5-difluoro-benzenesulfonylamino)-benzamido]-adamantan-1-carboxylic acid amide]"
15,0.0112 µM,NC(=O)C12CC3CC(C1)C(NC(=O)C1(NC(=O)c4cccc(F)c4F)CC1)C(C3)C2 (centres unmarked) [Example 59]
16,0.0078 µM,"NC(=O)C12CC3CC(C1)C(NC(=O)c1cccc(NS(=O)(=O)c4ccc(F)cc4F)c1)C(C3)C2 (centres unmarked) [Example 121, E-4-[3-(2,4-difluoro-benzenesulfonylamino)-benzamido]-adamantan-1-carboxylic acid amide]"
17,0.0071 µM,"CC(C)(CNS(=O)(=O)c1cccc(Cl)c1)C(=O)NC1C2CC3CC1CC(C(N)=O)(C3)C2 (centres unmarked) [Example 67, E-4-(3-(3-chlorobenzenesulfonylamino)-2,2-dimethylpropanamido)adamantan-1-carboxylic acid amide]"
18,0.005 µM,"NC(=O)C12CC3CC(C1)C(NC(=O)c1cccc(NS(=O)(=O)c4c(Cl)cc(Cl)cc4Cl)c1)C(C3)C2 (centres unmarked) [Example 117, E-4-[3-(2,4,6-trichloro-benzenesulfonylamino)-benzamido]-adamantan-1-carboxylic acid amide]"
19,0.0048 µM,NC(=O)C12CC3CC(C1)C(NC(=O)c1cccc(NS(=O)(=O)c4ccccc4Cl)c1)C(C3)C2 (centres unmarked) [Example 106]
20,0.0019 µM,"CN(c1cccc(C(=O)NC2C3CC4CC2CC(C(N)=O)(C4)C3)c1)S(=O)(=O)c1ccccc1C(F)(F)F (centres unmarked) [Example 99, E-4-(3-[(2-trifluoromethyl-benzenesulfonyl)-methylamino]-benzamido)-adamantan-1-carboxylic acid amide]"

# System: KKAy mice
# Test: In vivo study of the lowering effect on plasma glucose and plasma insulin in KKAy mouse model
# Settings: either 100 mg/kg or 50 mg/kg
row,Compound,levels of plasma glucose and plasma insulin
1,"NC(=O)C12CC3CC(C1)C(NC(=O)C1(CNS(=O)(=O)c4ccccc4F)CC1)C(C3)C2 (centres unmarked) [Example 3, E-4-[1-((2-fluoro-benzenesulfonylamino)methyl)cyclopropanecarboxamido]-adamantan-1-carboxylic acid amide]",significantly reduced
2,"CN(CC1(C(=O)NC2C3CC4CC2CC(C(N)=O)(C4)C3)CC1)S(=O)(=O)c1ccccc1F (centres unmarked) [Example 22, E-4-[1-((2-fluoro-N-methyl-benzenesulfonylamino)methyl)cyclopropanecarboxamido]-adamantan-1-carboxylic acid amide]",significantly reduced
